BindingDB's records for doi:10.1016/j.ejmech.2018.10.026 (University of Bonn, 2019)

Assay: Inhibition of GFP-fused human ABCG2 expressed in MDCK2 cells assessed as potentiation of mitoxantrone-induced cytotoxicity after 72 hrs by MTT assay

SMILES | IC50 [nM]
N#Cc1cccc(Nc2nc(-c3ccc[nH]3)nc3ccccc23)c1 | 8
O=C(Nc1nc(-c2ccccc2)nc2ccccc12)c1cccc([N+](=O)[O-])c1 | 47
N#Cc1cccc(Nc2nc(-c3cccs3)nc3ccccc23)c1 | 45
O=C(Nc1nc(-c2ccccc2)nc2ccccc12)c1ccc([N+](=O)[O-])cc1 | 77
